Measured values from patent US20230286923A1 (INIPHARM, INC., priority 2020, published 2023).

Columns and labels:
[1] = target: T1, HSD17B13 enzyme (Homo sapiens (Human), UniProt Q7Z5P4); experiment: NADH detection assay (fluorescence based LTB3 assay) for HSD17B13 activity; assay type: biochemical; settings: substrate 25 µM LTB3, 3 mM NAD+, 125 nM enzyme
Procedure: The fluorescence based Leukotriene B3 (LTB3) assay monitors the fluorescence of NADH, which is generated from NAD+ during the dehydrogenation of the substrate LTB3. The reactions were performed in a 384-well plates (Greiner; #655076) in a 20 µl reaction volume containing the following reagents (final concentrations): 25 µM LTB3 (Cayman; #20109); 3 mM NAD^+ (Sigma; #N0623); 125 nM HSD17B13 enzyme (in-house; E. coli expressed His-tagged, purified, soluble protein); 1 M potassium phosphate buffer, pH 7.4; and 1% DMSO. Reactions were initiated by co-addition of NAD+ and enzyme, and monitored for 1 hour at 26.5° C. Generation of NADH was measured as the fluorescence signal (Excitation at 340 nm and Emission at 445 nm) at 1 hour minus the baseline fluorescence at t=0. Fluorescence signals in the absence of LTB3 (negative control values), were subtracted from all values so that the results reflected substrate-dependent production of NADH. NADH standards were included to allow the conversion of relative fluorescence units into rates of enzyme activity. Enzyme activity in the presence of test compounds was expressed as a percentage of the uninhibited enzyme activity, and plotted versus inhibitor concentration. Non-linear regression was performed using a four-parameter logistic model and Microsoft Excel Solver software Ten concentrations of inhibitor were tested in duplicate (in the range of 30 µM - 2.5 nM), and two independent concentration response assays were performed.

[2] = target: T1, HSD17B13 enzyme; experiment: Estrone detection assay (LC/MS, conversion of estradiol to estrone) for HSD17B13 activity; assay type: biochemical; settings: substrate 4 µM estradiol, 6 mM NAD+, 30 nM enzyme
Procedure: The liquid chromatography/mass spectrometry (LC/MS) estrone detection assay monitors the conversion of estradiol to estrone by HSD17B13. This assay was undertaken in a 96wp format (Eppendorf deep well Plate 96/500) in an 80 µl reaction volume containing: 4 µM of Estradiol (E2; Cayman; #10006315), 6 mM NAD^+ (Sigma; #N0623) and 30 nM HSD17B13 enzyme (in-house; E. coli expressed His-tagged, purified, soluble protein) in a reaction containing 1 M potassium phosphate buffer pH 7.4, with 0.5% vehicle (DMSO). Reactions were incubated for 2 hours at 26.5° C., and estradiol (E2) conversion to estrone (E1) was quantitated by LC-MS/MS based analyte detection for both E2 and E1 using LCMS grade reagents.
Reactions were terminated by the addition of two volumes of acetonitrile (MeCN; LCMS grade; CAS# 75/05/8) containing deuterated (D4)-E1 used as internal standard (Clear Synth; #CS-T-54273; 500 ng/mL final concentration). Samples were applied to pre-prepared Bond Elut-C18 extraction cartridges (3 mL; Agilent; #12102028), washed and eluted in MeCN. Eluates were dried under nitrogen and re-suspended in 60% methanol (LCMS grade methanol; CAS# 67/56/1) before submission for analysis. Aqueous linearity for E2 and E1 were included for quantification.
Analysis of samples was undertaken on a XBridge BEH C18 column (Waters; #186003033) using 0.1% Diethyl Amine in MeCN (mobile phase A; DEA CAS# 109-89-7) and 0.1% Diethyl Amine in milli-Q water (mobile phase B) in a 3 min gradient allowing 25%B. Analytes were detected in negative mode using MRM analysis, with E2 having a RT of 1.85 min and E1 having a RT of 2 min. Activity of the enzyme, in the absence of NAD^+, was used to evaluate specificity of conversion. Enzyme activity in the presence of test samples was expressed as a percentage of the uninhibited enzyme activity, and plotted versus inhibitor concentration. Non-linear regression was performed using a four-parameter logistic model and GraphPad Prism software (GraphPad Software, La Jolla, CA). All assessments were undertaken in duplicate evaluations and pooled during extraction process and subsequently injected as duplicates for LC-MS/MS analysis.

T1 sequence (Q7Z5P4 20-300): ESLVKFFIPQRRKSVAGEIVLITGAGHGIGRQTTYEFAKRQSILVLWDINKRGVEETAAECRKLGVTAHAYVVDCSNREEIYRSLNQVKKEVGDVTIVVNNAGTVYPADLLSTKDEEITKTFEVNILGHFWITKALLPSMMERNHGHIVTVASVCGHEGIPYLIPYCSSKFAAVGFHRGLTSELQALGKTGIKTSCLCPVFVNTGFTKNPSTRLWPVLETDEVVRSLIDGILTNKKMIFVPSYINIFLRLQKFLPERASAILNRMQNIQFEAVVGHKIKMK

IC50 [1] [nM]	IC50 [2] [nM]	SMILES
> 10000	1000 to 10000	COc1ccccc1CCn1cnc2cccc(NC(=O)c3ccc(CC(=O)O)c(F)c3)c2c1=O [Example 25, 2-(2-fluoro-4-((3-(2-methoxyphenethyl)-4-oxo-3,4-dihydroquinazolin-5-yl)carbamoyl)phenyl)acetic acid]
> 10000	1000 to 10000	COc1ccccc1CCn1cnc2cccc(NC(=O)c3ccc(-c4cnn[nH]4)c(F)c3)c2c1=O [Example 26, 3-fluoro-N-(3-(2-methoxyphenethyl)-4-oxo-3,4-dihydroquinazolin-5-yl)-4-(1H-1,2,3-triazol-5-yl)benzamide]
1000 to 5000	1000 to 10000	COc1ccccc1CCn1cnc2cccc(NC(=O)c3ccc(-c4nnn[nH]4)c(Cl)c3)c2c1=O [Example 27, 3-chloro-N-(3-(2-methoxyphenethyl)-4-oxo-3,4-dihydroquinazolin-5-yl)-4-(1H-tetrazol-5-yl)benzamide]
5000 to 10000	100 to 1000	COc1ccccc1CCn1cnc2c(c(NC(=O)c3ccc(O)c(F)c3)nn2C)c1=O [Example 28, 3-fluoro-4-hydroxy-N-(5-(2-methoxyphenethyl)-1-methyl-4-oxo-4,5-dihydro-1H-pyrazolo[3,4-d]pyrimidin-3-yl)benzamide]
> 10000	> 10000	COc1ccccc1CCn1cnc2cccc(NC(=O)c3ccc(S(N)(=O)=O)c(Cl)c3)c2c1=O [Example 29, 3-chloro-N-(3-(2-methoxyphenethyl)-4-oxo-3,4-dihydroquinazolin-5-yl)-4-sulfamoylbenzamide]
≤ 1000	≤ 100	O=C(Nc1cccc2ncn(Cc3cccnc3)c(=O)c12)c1ccc(O)c(Cl)c1 [Example 30, 3-chloro-4-hydroxy-N-(4-oxo-3-(pyridin-3-ylmethyl)-3,4-dihydroquinazolin-5-yl)benzamide]
> 10000	> 10000	COc1ccccc1CCn1cnc2cccc(NC(=O)c3ccc(O)c(C(C)(C)C)c3)c2c1=O [Example 31, 3-(tert-butyl)-4-hydroxy-N-(3-(2-methoxyphenethyl)-4-oxo-3,4-dihydroquinazolin-5-yl)benzamide]
≤ 1000	≤ 100	COc1ccccc1CCn1cnc2cccc(NC(=O)c3ccc(O)c(C(F)(F)F)c3)c2c1=O [Example 32, 4-hydroxy-N-(3-(2-methoxyphenethyl)-4-oxo-3,4-dihydroquinazolin-5-yl)-3-(trifluoromethyl)benzamide]
1000 to 5000	100 to 1000	COc1ccccc1CCn1cnc2cccc(NC(=O)c3cc(Cl)c(O)c(Cl)c3)c2c1=O [Example 33, 3,5-dichloro-4-hydroxy-N-(3-(2-methoxyphenethyl)-4-oxo-3,4-dihydroquinazolin-5-yl)benzamide]
≤ 1000	≤ 100	COc1ccccc1CCn1cnc2sc(C)c(NC(=O)c3ccc(O)c(Cl)c3)c2c1=O [Example 34, 3-chloro-4-hydroxy-N-(3-(2-methoxyphenethyl)-6-methyl-4-oxo-3,4-dihydrothieno[2,3-d]pyrimidin-5-yl)benzamide]
